Source: ChEMBL document CHEMBL5346933, “Design and synthesis of novel arylurea derivatives of aryloxy(1-phenylpropyl) alicyclic diamines with antimicrobial activity against multidrug-resistant Gram-positive bacteria” (Eur J Med Chem, 2023)
Converted amounts (≈) assume the structure as drawn. The source made the active and inactive calls. The rule behind the calls is not given here.

What was measured:
[1] = test system: Staphylococcus aureus; test: Antibacterial activity against methicillin-resistant Staphylococcus aureus clinical strain 19449 assessed as inhibition of bacterial growth incubated for 18 hrs by broth microdilution method; type: functional
[2] = test system: Staphylococcus epidermidis; test: Antibacterial activity against methicillin-susceptible Staphylococcus epidermidis ATCC 12228 assessed as inhibition of bacterial growth incubated for 18 hrs by broth microdilution method; type: functional
[3] = test system: Pseudomonas aeruginosa; test: Antibacterial activity against Pseudomonas aeruginosa ATCC 27853 assessed as inhibition of bacterial growth incubated for 18 hrs by broth microdilution method; type: functional
[4] = test system: Klebsiella pneumoniae; test: Antibacterial activity against Klebsiella pneumoniae ATCC 700603 assessed as inhibition of bacterial growth incubated for 18 hrs by broth microdilution method; type: functional
[5] = test system: Staphylococcus aureus; test: Antibacterial activity against vancomycin-intermediate Staphylococcus aureus ATCC 700699 assessed as inhibition of bacterial growth incubated for 18 hrs by broth microdilution method; type: functional
[6] = test system: Staphylococcus epidermidis; test: Antibacterial activity against linezolid-resistant Staphylococcus epidermidis NIL 4399/19 assessed as inhibition of bacterial growth incubated for 18 hrs by broth microdilution method; type: functional
[7] = test system: Staphylococcus aureus; test: Antibacterial activity against biofilm producer Staphylococcus aureus RN450 assessed as inhibition of bacterial growth incubated for 18 hrs by broth microdilution method; type: functional
[8] = test system: Streptococcus pneumoniae; test: Antibacterial activity against Streptococcus pneumoniae ATCC 49619 assessed as inhibition of bacterial growth incubated for 18 hrs by broth microdilution method; type: functional
[9] = test system: Staphylococcus aureus; test: Antibacterial activity against methicillin-susceptible Staphylococcus aureus ATCC 25923 assessed as inhibition of bacterial growth incubated for 18 hrs by broth microdilution method; type: functional
[10] = test system: Escherichia coli; test: Antibacterial activity against Escherichia coli ATCC 25922 assessed as inhibition of bacterial growth incubated for 18 hrs by broth microdilution method; type: functional
[11] = test system: Staphylococcus epidermidis; test: Antibacterial activity against biofilm producer Staphylococcus epidermidis ATCC 35984 assessed as inhibition of bacterial growth incubated for 18 hrs by broth microdilution method; type: functional
[12] = test system: Enterococcus faecium; test: Antibacterial activity against vancomycin-resistant Enterococcus faecium assessed as inhibition of bacterial growth incubated for 18 hrs by broth microdilution method; type: functional
[13] = test system: Enterococcus faecalis; test: Antibacterial activity against Enterococcus faecalis ATCC 29212 assessed as inhibition of bacterial growth incubated for 18 hrs by broth microdilution method; type: functional
[14] = Cytotoxicity against human MRC5 cells assessed as reduction in cell viability incubated for 24 hrs by MTT assay; type: toxicity, cell-based
[15] = Cytotoxicity against human BJ cells assessed as reduction in cell viability incubated for 24 hrs by MTT assay; type: toxicity, cell-based

For O=C(Nc1ccccc1)NC1CCN(CCC(Oc2ccc(C(F)(F)F)cc2)c2ccccc2)CC1 (racemic), the MIC [1] was > 12.5 µg/mL, the MIC [2] was > 12.5 µg/mL and the Activity [3] was “inactive”. For the same compound, the Activity [4] was “inactive”, the MIC [5] was > 12.5 µg/mL and the MIC [6] was > 12.5 µg/mL. The MIC [7] was > 12.5 µg/mL, the MIC [8] was > 12.5 µg/mL and the MIC [9] was > 12.5 µg/mL. For the same compound, the Activity [10] was “inactive” and the MIC [11] was 12.5 µg/mL (≈ 25.1 µM).

With O=C(Nc1cccc(Cl)c1)NC1CCN(CCC(Oc2ccc(F)cc2)c2ccccc2)CC1 (racemic) the MIC [1] was 6.25 µg/mL (≈ 13 µM), the MIC [2] was 6.25 µg/mL (≈ 13 µM) and the Activity [3] was “inactive”. The Activity [4] was “inactive”, the MIC [5] was 6.25 µg/mL (≈ 13 µM) and the MIC [6] was 6.25 µg/mL (≈ 13 µM). It also gave an MIC [7] of 3.12 µg/mL (≈ 6.48 µM), an MIC [8] of 12.5 µg/mL (≈ 25.9 µM) and an MIC [12] of 1.56 µg/mL (≈ 3.24 µM). The MIC [9] was 6.25 µg/mL (≈ 13 µM), the MIC [13] was 6.25 µg/mL (≈ 13 µM) and the Activity [10] was “inactive”. The MIC [11] was 3.12 µg/mL (≈ 6.48 µM).

In the case of O=C(Nc1cccc(Cl)c1)NC1CCN(CCC(Oc2ccccc2Cl)c2ccccc2)CC1 (racemic), the MIC [1] is reported as 6.25 µg/mL (≈ 12.5 µM), the MIC [2] is reported as 6.25 µg/mL (≈ 12.5 µM) and the Activity [3] is reported as “inactive”. The Activity [4] was “inactive”, the MIC [5] was 6.25 µg/mL (≈ 12.5 µM) and the MIC [6] was 3.12 µg/mL (≈ 6.27 µM). It also gave an MIC [7] of 1.56 µg/mL (≈ 3.13 µM), an MIC [8] of 12.5 µg/mL (≈ 25.1 µM) and an MIC [12] of 6.25 µg/mL (≈ 12.5 µM). The MIC [9] was 6.25 µg/mL (≈ 12.5 µM), the MIC [13] was 6.25 µg/mL (≈ 12.5 µM) and the Activity [10] was “inactive”. It also gave an MIC [11] of 3.12 µg/mL (≈ 6.27 µM).

For O=C(Nc1cccc(Cl)c1)NC1CCN(CCC(Oc2ccccc2C(F)(F)F)c2ccccc2)CC1 (racemic), the MIC [1] was 3.12 µg/mL (≈ 5.87 µM), the MIC [2] was 12.5 µg/mL (≈ 23.5 µM) and the Activity [3] was “inactive”. For the same compound, the Activity [4] was “inactive”, the MIC [5] was 3.12 µg/mL (≈ 5.87 µM) and the MIC [6] was 3.12 µg/mL (≈ 5.87 µM). For the same compound, the MIC [7] was 3.12 µg/mL (≈ 5.87 µM), the MIC [8] was 12.5 µg/mL (≈ 23.5 µM) and the MIC [9] was 3.12 µg/mL (≈ 5.87 µM). The Activity [10] was “inactive” and the MIC [11] was > 12.5 µg/mL.

For O=C(Nc1cccc(Cl)c1)NC1CCN(CCC(Oc2ccccc2F)c2ccccc2)CC1 (racemic), the MIC [1] was 12.5 µg/mL (≈ 25.9 µM), the MIC [2] was 12.5 µg/mL (≈ 25.9 µM) and the Activity [3] was “inactive”. For the same compound, the Activity [4] was “inactive”, the MIC [5] was 12.5 µg/mL (≈ 25.9 µM) and the MIC [6] was 6.25 µg/mL (≈ 13 µM). For the same compound, the MIC [7] was 6.25 µg/mL (≈ 13 µM), the MIC [8] was 12.5 µg/mL (≈ 25.9 µM) and the MIC [9] was 12.5 µg/mL (≈ 25.9 µM). The Activity [10] was “inactive” and the MIC [11] was 12.5 µg/mL (≈ 25.9 µM).

With COc1ccc(OC(CCN2CCC(NC(=O)Nc3cccc(Cl)c3)CC2)c2ccccc2)cc1 (racemic) the MIC [1] was 12.5 µg/mL (≈ 25.3 µM), the MIC [2] was 12.5 µg/mL (≈ 25.3 µM) and the Activity [3] was “inactive”. For the same compound, the Activity [4] was “inactive”, the MIC [5] was 6.25 µg/mL (≈ 12.7 µM) and the MIC [6] was 6.25 µg/mL (≈ 12.7 µM). The MIC [7] was 6.25 µg/mL (≈ 12.7 µM), the MIC [8] was > 12.5 µg/mL and the MIC [9] was 12.5 µg/mL (≈ 25.3 µM). For the same compound, the Activity [10] was “inactive” and the MIC [11] was 6.25 µg/mL (≈ 12.7 µM).

With O=C(Nc1ccc(Cl)cc1)NC1CCN(CCC(Oc2ccc(C(F)(F)F)cc2)c2ccccc2)CC1 (racemic) the MIC [1] was 6.25 µg/mL (≈ 11.7 µM), the MIC [2] was > 12.5 µg/mL and the Activity [3] was “inactive”. For the same compound, the Activity [4] was “inactive”, the MIC [5] was > 12.5 µg/mL and the MIC [6] was > 12.5 µg/mL. For the same compound, the MIC [7] was 1.56 µg/mL (≈ 2.93 µM), the MIC [8] was 6.25 µg/mL (≈ 11.7 µM) and the MIC [9] was > 12.5 µg/mL. The Activity [10] was “inactive” and the MIC [11] was 3.12 µg/mL (≈ 5.87 µM).

In the case of COc1cccc(OC(CCN2CCC(NC(=O)Nc3cccc(Cl)c3)CC2)c2ccccc2)c1 (racemic), the MIC [1] is reported as 12.5 µg/mL (≈ 25.3 µM), the MIC [2] is reported as 6.25 µg/mL (≈ 12.7 µM) and the Activity [3] is reported as “inactive”. For the same compound, the Activity [4] was “inactive”, the MIC [5] was 12.5 µg/mL (≈ 25.3 µM) and the MIC [6] was 6.25 µg/mL (≈ 12.7 µM). For the same compound, the MIC [7] was 3.12 µg/mL (≈ 6.33 µM), the MIC [8] was 12.5 µg/mL (≈ 25.3 µM) and the MIC [9] was 12.5 µg/mL (≈ 25.3 µM). For the same compound, the Activity [10] was “inactive” and the MIC [11] was 6.25 µg/mL (≈ 12.7 µM).

For O=C(Nc1cccc(Cl)c1)NC1CCN(CCC(Oc2ccccc2)c2ccccc2)CC1 (racemic), the MIC [1] was 12.5 µg/mL (≈ 26.9 µM), the MIC [2] was 6.25 µg/mL (≈ 13.5 µM) and the Activity [3] was “inactive”. For the same compound, the Activity [4] was “inactive”, the MIC [5] was 12.5 µg/mL (≈ 26.9 µM) and the MIC [6] was 6.25 µg/mL (≈ 13.5 µM). For the same compound, the MIC [7] was 1.56 µg/mL (≈ 3.36 µM), the MIC [8] was 12.5 µg/mL (≈ 26.9 µM) and the MIC [9] was 6.25 µg/mL (≈ 13.5 µM). The Activity [10] was “inactive” and the MIC [11] was 3.12 µg/mL (≈ 6.73 µM).

For O=C(O)c1cn(C2CC2)c2cc(N3CCNCC3)c(F)cc2c1=O [CIPROFLOXACIN], the MIC [2] was 0.78 µg/mL (≈ 2.35 µM), the MIC [6] was > 12.5 µg/mL and the MIC [7] was 0.78 µg/mL (≈ 2.35 µM). It also gave an MIC [12] of 0.78 µg/mL (≈ 2.35 µM), an MIC [9] of 0.78 µg/mL (≈ 2.35 µM) and an MIC [13] of 0.78 µg/mL (≈ 2.35 µM). It also gave an MIC [11] of 0.78 µg/mL (≈ 2.35 µM).

Compound COc1cccc2c1C(=O)c1c(O)c3c(c(O)c1C2=O)C[C@@](O)(C(=O)CO)C[C@@H]3O[C@H]1C[C@H](N)[C@H](O)[C@H](C)O1 [DOXORUBICIN] has an IC50 at 24 h [14] of 0.39 µg/mL (≈ 0.718 µM) and an IC50 at 24 h [15] of 0.78 µg/mL (≈ 1.44 µM).
